Earlier results as cited in USRE31980E, “Olefinic derivatives of amino acids” (Merrell Toraude et Compagnie, priority 1983, dated 1985).

Legend:
[1] = tested on: γ-aminobutyric acid transaminase
[2] = tested on: brain level of γ-aminobutyric acid; settings: in vivo

SMILES	inhibition of γ-aminobutyric acid transaminase (kind of inhibition), literature [1]	duration of the reversible effect (elevated brain levels of γ-aminobutyric acid), literature [2]
NCC#CC(=O)O [4-aminotetrolic acid]	competitive reversible inhibitor	–
CCCC(CCC)C(=O)O [n-dipropylacetate]	competitively inhibiting	about 2 hours
